Test results reported in patent US12258355B2, “Probes for imaging huntingtin protein” (CHDI Foundation, Inc., priority 2014, dated 2025).

Biological target: T1, Q46 protein aggregates (Homo sapiens, UniProt P42858)
T1 construct: fused on or other part: GST at the N-terminus, cut off with thrombin before the test to start aggregation; The wells held aggregated Q46 without GST
Test: Q46 radioligand binding assay (RBA)
Conditions: 10 nM ligand [3H3]MK-3328
Protocol: Q46 Radioligand Binding Assay
For radioligand binding assays (RBA) GST-Q46 protein was generated based on a previous publication (Scherzinger et al. Cell, Vol. 90, 549-558, Aug. 8, 1997). For experiments 33 μM GST-Q46 was incubated with 150 μg/mL thrombin in assay buffer (150 mM NaCl, 50 mM Tris pH 8.0) and 2 mM CaCl2 for 16 hours at 37° C. Aggregated Q46 was pelleted by centrifugation for 5 minutes at 13,000 rpm in a bench top centrifuge and re-dissolved in the same volume of assay buffer. Test compounds were prepared by titration in DMSO at 11 concentrations from 33 μM to 1 nM. For the RBA, Q46 protein aggregates and test compounds were pre-incubated in assay buffer for 20 minutes at room temperature, in 140 μL/well in a 96-well plate (pp, round bottom). Then, ligand was added in 10 μL/well and incubated for 60 minutes at 37° C. Final assay concentrations were 1 μM to 30 pM test compound, 5 μM Q46 protein (equivalent monomer concentration) and 10 nM ligand [^3H3]MK-3328 (Harrision et al., ACS Med. Chem. Lett., 2 (2011), pp 498-502). Samples were transferred onto GF/B filter plates and washed 2× with 200 μL PBS using a Filtermate Harvester. After drying filter plates for 1 hour at 37° C., the back of the plates were sealed with foil and 30 μL/well scintillation fluid (Packard MicroScint 40) added, incubated for 15 minutes in the dark and counted in a TopCount reader. For analysis, replicate data from independent assay plates were normalized towards 0% and 100% inhibition using control wells of vehicle (0% inhibition) and 3 μM unlabelled MK-3328 (100% inhibition). IC50 values were determined with a sigmoidal inhibition model with four variables (top, bottom, slope, IC50) in a global fit using the normalized replicate data.

T1 sequence (P42858 with tags, fused parts or gaps with the stated changes, form open): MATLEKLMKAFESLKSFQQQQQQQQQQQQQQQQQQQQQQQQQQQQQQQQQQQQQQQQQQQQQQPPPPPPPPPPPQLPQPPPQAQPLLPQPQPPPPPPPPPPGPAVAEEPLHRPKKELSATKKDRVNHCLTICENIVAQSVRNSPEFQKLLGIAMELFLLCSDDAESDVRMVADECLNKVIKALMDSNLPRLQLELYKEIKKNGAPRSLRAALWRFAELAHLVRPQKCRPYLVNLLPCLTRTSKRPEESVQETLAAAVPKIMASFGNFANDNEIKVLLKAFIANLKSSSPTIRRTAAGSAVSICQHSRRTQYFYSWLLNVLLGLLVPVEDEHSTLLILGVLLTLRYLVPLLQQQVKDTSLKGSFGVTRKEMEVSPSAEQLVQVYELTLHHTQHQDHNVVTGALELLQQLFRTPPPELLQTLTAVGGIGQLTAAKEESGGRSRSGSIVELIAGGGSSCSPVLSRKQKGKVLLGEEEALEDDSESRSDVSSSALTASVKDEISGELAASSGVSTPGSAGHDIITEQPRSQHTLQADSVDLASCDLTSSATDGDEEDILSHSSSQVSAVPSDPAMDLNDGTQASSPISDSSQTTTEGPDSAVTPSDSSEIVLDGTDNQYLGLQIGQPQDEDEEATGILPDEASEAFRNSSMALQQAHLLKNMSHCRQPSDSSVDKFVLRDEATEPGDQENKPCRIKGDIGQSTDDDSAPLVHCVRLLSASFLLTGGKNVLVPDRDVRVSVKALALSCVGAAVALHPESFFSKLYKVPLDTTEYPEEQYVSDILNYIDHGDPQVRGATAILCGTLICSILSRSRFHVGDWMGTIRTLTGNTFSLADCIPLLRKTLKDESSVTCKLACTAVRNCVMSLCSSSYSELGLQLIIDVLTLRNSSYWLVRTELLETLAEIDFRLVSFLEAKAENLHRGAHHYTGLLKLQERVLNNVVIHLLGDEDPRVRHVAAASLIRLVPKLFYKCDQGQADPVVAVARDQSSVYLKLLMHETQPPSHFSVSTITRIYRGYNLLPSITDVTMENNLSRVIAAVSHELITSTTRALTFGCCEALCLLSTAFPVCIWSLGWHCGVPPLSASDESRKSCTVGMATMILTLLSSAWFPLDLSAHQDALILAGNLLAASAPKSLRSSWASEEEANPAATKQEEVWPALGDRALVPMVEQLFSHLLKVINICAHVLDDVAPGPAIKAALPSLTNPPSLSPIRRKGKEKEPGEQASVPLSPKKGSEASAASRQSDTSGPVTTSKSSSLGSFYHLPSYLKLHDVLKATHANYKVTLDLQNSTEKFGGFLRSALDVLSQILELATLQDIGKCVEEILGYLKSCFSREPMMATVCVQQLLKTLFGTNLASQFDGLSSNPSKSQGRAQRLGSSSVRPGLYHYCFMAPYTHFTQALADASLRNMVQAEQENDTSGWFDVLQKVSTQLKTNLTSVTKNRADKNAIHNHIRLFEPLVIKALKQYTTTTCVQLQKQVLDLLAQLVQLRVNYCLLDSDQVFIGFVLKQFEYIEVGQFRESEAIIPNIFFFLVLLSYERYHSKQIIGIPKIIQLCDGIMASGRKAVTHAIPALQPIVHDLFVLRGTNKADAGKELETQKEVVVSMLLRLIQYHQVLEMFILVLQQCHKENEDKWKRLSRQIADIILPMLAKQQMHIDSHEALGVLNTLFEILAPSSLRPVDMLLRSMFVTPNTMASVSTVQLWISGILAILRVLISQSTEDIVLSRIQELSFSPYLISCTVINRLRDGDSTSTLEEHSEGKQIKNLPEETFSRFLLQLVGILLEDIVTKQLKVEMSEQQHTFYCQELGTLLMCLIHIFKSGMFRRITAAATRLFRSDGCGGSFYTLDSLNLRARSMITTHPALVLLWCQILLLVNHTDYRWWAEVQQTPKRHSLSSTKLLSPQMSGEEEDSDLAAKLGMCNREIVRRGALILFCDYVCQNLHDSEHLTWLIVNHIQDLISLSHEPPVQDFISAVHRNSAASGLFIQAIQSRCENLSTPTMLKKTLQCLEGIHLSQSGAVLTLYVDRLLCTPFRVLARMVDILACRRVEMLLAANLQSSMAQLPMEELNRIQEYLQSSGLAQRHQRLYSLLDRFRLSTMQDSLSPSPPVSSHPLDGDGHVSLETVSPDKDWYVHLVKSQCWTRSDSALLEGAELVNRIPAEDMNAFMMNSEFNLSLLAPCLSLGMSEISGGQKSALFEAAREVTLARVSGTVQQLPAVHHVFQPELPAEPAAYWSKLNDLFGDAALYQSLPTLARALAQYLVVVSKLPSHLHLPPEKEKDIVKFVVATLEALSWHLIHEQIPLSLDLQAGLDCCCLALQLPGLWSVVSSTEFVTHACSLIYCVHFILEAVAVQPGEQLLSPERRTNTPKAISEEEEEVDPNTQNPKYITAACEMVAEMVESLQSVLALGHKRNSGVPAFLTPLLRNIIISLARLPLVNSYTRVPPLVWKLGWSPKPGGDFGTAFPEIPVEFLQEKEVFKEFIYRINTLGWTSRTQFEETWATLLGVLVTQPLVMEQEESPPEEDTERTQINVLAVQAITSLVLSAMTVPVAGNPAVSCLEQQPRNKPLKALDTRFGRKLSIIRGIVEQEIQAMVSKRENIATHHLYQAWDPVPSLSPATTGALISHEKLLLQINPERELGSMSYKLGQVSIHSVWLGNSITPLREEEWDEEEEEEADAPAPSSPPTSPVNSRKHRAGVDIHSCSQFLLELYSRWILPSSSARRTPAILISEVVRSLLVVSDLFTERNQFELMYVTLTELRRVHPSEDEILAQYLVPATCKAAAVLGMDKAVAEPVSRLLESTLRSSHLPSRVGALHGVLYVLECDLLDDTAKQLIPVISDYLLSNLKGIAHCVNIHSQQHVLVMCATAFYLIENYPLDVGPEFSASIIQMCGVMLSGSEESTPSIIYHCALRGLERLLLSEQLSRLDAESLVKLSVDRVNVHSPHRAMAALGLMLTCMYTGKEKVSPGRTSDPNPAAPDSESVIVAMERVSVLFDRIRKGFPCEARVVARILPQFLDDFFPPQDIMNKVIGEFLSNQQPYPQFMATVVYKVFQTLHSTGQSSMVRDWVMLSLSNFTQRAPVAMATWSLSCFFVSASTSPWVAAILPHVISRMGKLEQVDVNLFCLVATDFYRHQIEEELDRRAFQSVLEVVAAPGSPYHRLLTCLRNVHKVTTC

O=C(Nc1ccc2oc(-c3cccnc3)nc2c1)C1Cc2ccccc2O1 (stereo not shown) [N-[2-(pyridin-3-yl)-1,3-benzoxazol-5-yl]-2,3-dihydro-1-benzofuran-2-carboxamide]
IC50: < 100 nM

COc1ccc(C(=O)Nc2ccc3oc(-c4ccncc4)nc3c2)cc1 [4-methoxy-N-[2-(pyridin-4-yl)-1,3-benzoxazol-5-yl]benzamide]
IC50: < 100 nM

COc1ccc(COc2ccc3oc(N4CCc5nc[nH]c5C4)nc3c2)nc1 [2-{3H,4H,5H,6H,7H-imidazo[4,5-c]pyridin-5-yl}-5-[(5-methoxypyridin-2-yl)methoxy]-1,3-benzoxazole]
IC50: < 100 nM

COc1ccc(/C=C\c2cnc3oc(-c4cccnc4)nc3c2)cc1 [3-{6-[(Z)-2-(4-methoxyphenyl)ethenyl]-[1,3]oxazolo[5,4-b]pyridin-2-yl}pyridine]
IC50: < 100 nM

CNCc1cccc(-c2nc3cc(OCc4ccc(OC)cn4)ccc3o2)c1 [[(3-{5-[(5-methoxypyridin-2-yl)methoxy]-1,3-benzoxazol-2-yl}phenyl)methyl](methyl)amine]
IC50: < 100 nM

COc1ccc(COc2ccc3oc(N4Cc5cccnc5C4)nc3c2)nc1 [5-[(5-methoxypyridin-2-yl)methoxy]-2-{5H,6H,7H-pyrrolo[3,4-b]pyridin-6-yl}-1,3-benzoxazole]
IC50: < 100 nM

COc1ccc(-c2ccc3oc(-c4cccnc4)nc3c2)nn1 [5-(6-methoxypyridazin-3-yl)-2-(pyridin-3-yl)-1,3-benzoxazole]
IC50: < 100 nM

COc1ccc(COc2ccc3oc(-c4ccncc4)nc3c2)nc1 [5-[(5-methoxypyridin-2-yl)methoxy]-2-(pyridin-4-yl)-1,3-benzoxazole]
IC50: < 100 nM

COc1ccc(COc2ccc3oc(-c4ccc(N)nc4)nc3c2)nc1 [5-{5-[(5-methoxypyridin-2-yl)methoxy]-1,3-benzoxazol-2-yl}pyridin-2-amine]
IC50: < 100 nM

c1cncc(COc2ccc3nc(-c4cccnc4)oc3c2)c1 [2-(pyridin-3-yl)-6-(pyridin-3-ylmethoxy)-1,3-benzoxazole]
IC50: < 100 nM

COc1ccc(COc2ccc3oc(-c4cn(C)cn4)nc3c2)nc1 [5-[(5-methoxypyridin-2-yl)methoxy]-2-(1-methyl-1H-imidazol-4-yl)-1,3-benzoxazole]
IC50: 100 to 500 nM

COc1ccc(COC(=O)Nc2ccc3oc(-c4cccnc4)nc3c2)nc1 [(5-methoxypyridin-2-yl)methyl N-[2-(pyridin-3-yl)-1,3-benzoxazol-5-yl]carbamate]
IC50: < 100 nM

COc1cnc(C(=O)Nc2ccc3oc(-c4cccc(C)c4)nc3c2)cn1 [5-methoxy-N-[2-(3-methylphenyl)-1,3-benzoxazol-5-yl]pyrazine-2-carboxamide]
IC50: < 100 nM

COc1ccc(C(=O)Nc2ccc3oc(-c4cccnc4)nc3c2)nc1 [5-methoxy-N-[2-(pyridin-3-yl)-1,3-benzoxazol-5-yl]pyridine-2-carboxamide]
IC50: < 100 nM

Cn1cc(-c2cc3cc(OCc4cncnc4)ccc3o2)c(C#N)n1 [1-methyl-4-[5-(pyrimidin-5-ylmethoxy)-1-benzofuran-2-yl]-1H-pyrazole-3-carbonitrile]
IC50: < 100 nM

C1=C(c2cc3cc(OCc4cccnc4)ccc3o2)N2CCN=C2S1 [3-{[(2-{5H,6H-imidazo[2,1-b][1,3]thiazol-3-yl}-1-benzofuran-5-yl)oxy]methyl}pyridine]
IC50: < 100 nM

COc1ccc(COc2ccc3oc(-c4ccc(C#N)cc4)nc3c2)nc1 [4-{5-[(5-methoxypyridin-2-yl)methoxy]-1,3-benzoxazol-2-yl]benzonitrile]
IC50: < 100 nM

COc1ccc(C(=O)Nc2ccc3oc(-c4ccc(=O)n(C)n4)nc3c2)nc1 [5-methoxy-N-[2-(1-methyl-6-oxo-1,6-dihydropyridazin-3-yl)-1,3-benzoxazol-5-yl]pyridine-2-carboxamide]
IC50: < 100 nM

O=C(Nc1ccc2oc(-c3cccnc3)nc2c1)c1ccc(-c2ncccn2)cc1 [N-[2-(pyridin-3-yl)-1,3-benzoxazol-5-yl]-4-(pyrimidin-2-yl)benzamide]
IC50: < 100 nM
